# Experimental data as given in US10913727B2, “Modulators of the integrated stress pathway” (Calico Life Sciences LLC, priority 2016, dated 2021).
# System: HEK293T cells carrying the ATF4 luciferase reporter
# Test: ATF4-Luc assay, in vitro model of Vanishing Cell White Matter Disease (VWMD)
# Format: cell-based
# Settings: Homo sapiens, HEK-293T, 1 μg/mL tunicamycin, 7 hours, One Glo luminescence
# Summary of the method: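 Reporter cells were stably generated by retroviral transduction and puromycin selection, then seeded at 30,000 cells/well. Next day, cells received 1 μg/mL tunicamycin with 200 nM test compound for 7 h, and luciferase luminescence was read with a one-step reagent. Values reported as EC50.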
row,SMILES,EC50 [µM]
1,"O=C(COc1ccc(Cl)c(F)c1)NC12CC(NC(=O)c3ccco3)(C1)C2 [Compound 304, N-{3-[2-(4-chloro-3-fluorophenoxy)acetamido]bicyclo[1.1.1]pentan-1-yl}furan-2-carboxamide]",0.25 to 1
2,"O=C(COc1ccc(Cl)c(F)c1)NC12CC(Nc3c(Cl)cnn(CC(F)(F)F)c3=O)(C1)C2 [Compound 417, 2-(4-chloro-3-fluorophenoxy)-N-(3-{[5-chloro-3-oxo-2-(2,2,2-trifluoroethyl)-2,3-dihydropyridazin-4-yl]amino}bicyclo[1.1.1]pentan-1-yl)acetamide]",0.25 to 1
3,"Cc1cncc(C(=O)NC23CC(NC(=O)COc4ccc(Cl)c(Cl)c4)(C2)C3)n1 [Compound 737, N-{3-[2-(3,4-dichlorophenoxy)acetamido]bicyclo[1.1.1]pentan-1-yl}-6-methylpyrazine-2-carboxamide]",0.25 to 1
4,"Cn1nc(C(F)F)cc1C(=O)NC12CC(NC(=O)COc3ccc(Cl)c(F)c3)(C1)C2 [Compound 365, N-{3-[2-(4-chloro-3-fluorophenoxy)acetamido]bicyclo[1.1.1]pentan-1-yl}-3-(difluoromethyl)-1-methyl-1H-pyrazole-5-carboxamide]",< 0.05
5,"COc1ccc2oc(C(=O)NC34CC(NC(=O)COc5ccc(Cl)c(F)c5)(C3)C4)cc2c1 [Compound 319, N-{3-[2-(4-chloro-3-fluorophenoxy)acetamido]bicyclo[1.1.1]pentan-1-yl}-5-methoxy-1-benzofuran-2-carboxamide]",0.05 to 0.25
6,"CC(=O)Nc1cccc(C(=O)NC23CC(NC(=O)COc4ccc(Cl)c(F)c4)(C2)C3)n1 [Compound 884, 6-acetamido-N-{3-[2-(4-chloro-3-fluorophenoxy)acetamido]bicyclo[1.1.1]pentan-1-yl}pyridine-2-carboxamide]",0.25 to 1
7,"O=C(COc1ccc(Cl)c(F)c1)NC12CCC(NC(=O)c3cc(N4CCOCC4)ccn3)(CC1)CC2O (stereo not shown) [Compound 935, N-{4-[2-(4-chloro-3-fluorophenoxy)acetamido]-3-hydroxybicyclo[2.2.2]octan-1-yl}-4-(morpholin-4-yl)pyridine-2-carboxamide]",> 2
8,"O=C(COc1ccc(Cl)c(Cl)c1)NC12CC(NC(=O)c3ccc(CO)nc3)(C1)C2 [Compound 719, N-{3-[2-(3,4-dichlorophenoxy)acetamido]bicyclo[1.1.1]pentan-1-yl}-6-(hydroxymethyl)pyridine-3-carboxamide]",1 to 2
9,"O=C(COc1ccc(Cl)c(F)c1)NC12CCC(NC(=O)c3ccc(OC(F)(F)F)cn3)(CC1)CC2O (stereo not shown) [Compound 480, N-{4-[2-(4-chloro-3-fluorophenoxy)acetamido]-3-hydroxybicyclo[2.2.2]octan-1-yl}-5-(trifluoromethoxy)pyridine-2-carboxamide]",< 0.05
10,"Cc1cncc(NC23CC(NC(=O)COc4ccc(Cl)c(F)c4)(C2)C3)n1 [Compound 688, 2-(4-chloro-3-fluorophenoxy)-N-{3-[(6-methylpyrazin-2-yl)amino]bicyclo[1.1.1]pentan-1-yl}acetamide]",> 2
11,"O=C(COc1ccc(Cl)c(Cl)c1)NC12CC(NC(=O)c3ccc(Cl)c(F)c3)(C1)C2 [Compound 685, 4-chloro-N-{3-[2-(3,4-dichlorophenoxy)acetamido]bicyclo[1.1.1]pentan-1-yl}-3-fluorobenzamide]",< 0.05
12,"O=C(COc1ccc(Cl)c(F)c1)NC12CC(NC(=O)c3cc4n(n3)CCC4)(C1)C2 [Compound 259, N-{3-[2-(4-chloro-3-fluorophenoxy)acetamido]bicyclo[1.1.1]pentan-1-yl}-5,6-dihydro-4H-pyrrolo[1,2-b]pyrazole-2-carboxamide]",0.25 to 1
13,"CC(C)(O)c1ccc(C(=O)NC23CC(NC(=O)COc4ccc(Cl)c(F)c4)(C2)C3)cc1 [Compound 208, N-{3-[2-(4-chloro-3-fluorophenoxy)acetamido]bicyclo[1.1.1]pentan-1-yl}-4-(2-hydroxypropan-2-yl)benzamide]",1 to 2
